Data: paper PMC5748279, “Novel Antitubercular 6-Dialkylaminopyrimidine Carboxamides from Phenotypic Whole-Cell High Throughput Screening of a SoftFocus Library: Structure–Activity Relationship and Target Identification Studies” (Journal of Medicinal Chemistry, 2017)
Like-named read-outs stand apart in the source and are kept apart here.

Columns and labels:
[1] = tested on: 13-resistant mutant of Mtb H37Rv; format: cell-based, Mycobacterium tuberculosis
[2] = molecular target: (UniProt A0A0H3MB87); experiment: biochemical; format: binding, Mycobacterium bovis BCG
(UniProt A0A0H3MB87), sequence (A0A0H3MB87 1-463): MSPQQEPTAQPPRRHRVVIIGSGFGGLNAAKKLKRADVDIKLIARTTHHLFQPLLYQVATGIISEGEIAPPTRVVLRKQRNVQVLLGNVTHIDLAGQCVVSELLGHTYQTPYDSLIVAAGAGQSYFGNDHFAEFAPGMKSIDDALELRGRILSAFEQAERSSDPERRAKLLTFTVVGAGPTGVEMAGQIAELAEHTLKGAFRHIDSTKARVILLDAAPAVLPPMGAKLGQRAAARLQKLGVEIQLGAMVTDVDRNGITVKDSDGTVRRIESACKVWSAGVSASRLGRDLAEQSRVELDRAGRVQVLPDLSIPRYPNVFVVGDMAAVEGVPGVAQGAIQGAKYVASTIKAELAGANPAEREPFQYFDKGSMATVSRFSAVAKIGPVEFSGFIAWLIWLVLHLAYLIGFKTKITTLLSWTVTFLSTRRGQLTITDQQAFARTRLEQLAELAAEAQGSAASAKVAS

[3] = molecular target: (UniProt A0A0H3MC72); experiment: biochemical; format: binding, Mycobacterium bovis BCG
(UniProt A0A0H3MC72), sequence (A0A0H3MC72 1-488): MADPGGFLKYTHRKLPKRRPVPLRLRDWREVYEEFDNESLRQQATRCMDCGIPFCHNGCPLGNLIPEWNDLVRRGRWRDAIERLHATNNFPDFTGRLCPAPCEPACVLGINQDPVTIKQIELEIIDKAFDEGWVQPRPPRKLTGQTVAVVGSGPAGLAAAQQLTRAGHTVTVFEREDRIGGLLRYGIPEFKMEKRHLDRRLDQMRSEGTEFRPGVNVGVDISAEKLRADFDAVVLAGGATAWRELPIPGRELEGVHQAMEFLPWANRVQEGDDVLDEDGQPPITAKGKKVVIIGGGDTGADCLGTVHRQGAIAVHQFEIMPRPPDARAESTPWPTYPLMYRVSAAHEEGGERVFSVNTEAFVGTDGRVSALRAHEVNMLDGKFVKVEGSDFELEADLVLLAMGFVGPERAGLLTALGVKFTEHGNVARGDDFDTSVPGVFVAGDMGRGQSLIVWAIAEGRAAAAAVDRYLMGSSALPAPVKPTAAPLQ

[4] = molecular target: (UniProt A0A0H3MFG4); experiment: biochemical; format: binding, Mycobacterium bovis BCG
(UniProt A0A0H3MFG4), sequence (A0A0H3MFG4 1-834): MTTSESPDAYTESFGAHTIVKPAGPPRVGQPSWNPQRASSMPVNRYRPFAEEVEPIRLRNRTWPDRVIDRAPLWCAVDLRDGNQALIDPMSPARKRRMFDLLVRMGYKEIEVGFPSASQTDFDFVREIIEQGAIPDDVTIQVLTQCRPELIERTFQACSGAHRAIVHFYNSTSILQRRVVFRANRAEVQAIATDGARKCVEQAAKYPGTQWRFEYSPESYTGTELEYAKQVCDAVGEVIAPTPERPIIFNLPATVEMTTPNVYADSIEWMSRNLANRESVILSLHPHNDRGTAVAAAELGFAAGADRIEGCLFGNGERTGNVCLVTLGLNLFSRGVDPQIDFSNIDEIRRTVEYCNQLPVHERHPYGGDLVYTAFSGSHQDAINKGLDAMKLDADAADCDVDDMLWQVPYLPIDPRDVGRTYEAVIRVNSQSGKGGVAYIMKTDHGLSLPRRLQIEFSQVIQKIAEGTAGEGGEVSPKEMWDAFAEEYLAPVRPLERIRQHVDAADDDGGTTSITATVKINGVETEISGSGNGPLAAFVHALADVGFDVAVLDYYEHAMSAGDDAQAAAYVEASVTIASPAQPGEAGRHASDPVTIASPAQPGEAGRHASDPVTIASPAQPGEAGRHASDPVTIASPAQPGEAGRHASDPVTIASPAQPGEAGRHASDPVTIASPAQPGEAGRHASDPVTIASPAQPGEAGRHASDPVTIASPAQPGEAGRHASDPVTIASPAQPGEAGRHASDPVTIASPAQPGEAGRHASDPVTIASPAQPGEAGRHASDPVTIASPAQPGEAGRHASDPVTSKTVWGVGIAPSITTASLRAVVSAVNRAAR

[5] = molecular target: (UniProt A0A0H3M9R5); experiment: biochemical; format: binding, Mycobacterium bovis BCG
(UniProt A0A0H3M9R5), sequence (A0A0H3M9R5 1-518): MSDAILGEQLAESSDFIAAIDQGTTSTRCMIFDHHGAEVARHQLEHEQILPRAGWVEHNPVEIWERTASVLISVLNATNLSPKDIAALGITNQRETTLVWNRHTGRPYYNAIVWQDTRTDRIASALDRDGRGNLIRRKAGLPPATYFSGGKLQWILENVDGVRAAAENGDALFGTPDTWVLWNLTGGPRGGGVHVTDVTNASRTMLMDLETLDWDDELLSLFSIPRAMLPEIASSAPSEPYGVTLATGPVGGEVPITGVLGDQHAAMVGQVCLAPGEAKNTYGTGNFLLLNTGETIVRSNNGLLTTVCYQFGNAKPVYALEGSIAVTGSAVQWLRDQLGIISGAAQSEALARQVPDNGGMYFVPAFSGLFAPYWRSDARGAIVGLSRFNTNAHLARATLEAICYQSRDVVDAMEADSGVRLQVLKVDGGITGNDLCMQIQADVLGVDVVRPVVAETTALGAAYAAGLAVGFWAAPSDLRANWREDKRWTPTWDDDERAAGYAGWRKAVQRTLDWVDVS

**Q.** For COc1ccc(NC(=O)c2cc(N(C)Cc3ccccc3)ncn2)cc1 [Compound 1, 6-(Benzyl(methyl)amino)-N-(4-methoxyphenyl)pyrimidine-4-carboxamide], which “14 day GAST/Fe MIC99 against 13-resistant mutant” value (“14 day GAST/Fe MIC99” for short) [1] is on record?
**A.** >160 µM

**Q.** Which “14 day GAST/Fe MIC99” value [1] does the source give for CN(Cc1ccc(F)cc1)c1cc(C(=O)Nc2ccccc2)ncn1 [Compound 10, 6-((4-Fluorobenzyl)(methyl)amino)-N-phenylpyrimidine-4-carboxamide] here?
**A.** >160 µM

**Q.** With COc1ccc(NC(=O)c2cc(N(C)Cc3cccc(F)c3)ncn2)cc1 [Compound 13, 6-((3-Fluorobenzyl)(methyl)amino)-N-(4-methoxyphenyl)pyrimidine-4-carboxamide] as the compound, how does the “14 day GAST/Fe MIC99” value [1] read?
**A.** >160 µM

**Q.** CN(Cc1ccc(C(F)(F)F)nc1)c1cc(C(=O)Nc2ccccc2)ncn1 [Compound 20, 6-(Methyl((6-(trifluoromethyl)pyridin-3-yl)methyl)amino)-N-phenylpyrimidine-4-carboxamide] was tested. Which “14 day GAST/Fe MIC99” value [1] did it give?
**A.** >160 µM

**Q.** With O=C(Nc1ccccc1)c1ccc(=O)n(Cc2ccc(F)cc2)c1 [Compound 25, 1-(4-Fluorobenzyl)-6-oxo-N-phenyl-1,6-dihydropyridine-3-carboxamide] as the compound, how does the IC50 ([2]; read-out: IC50) read?
**A.** ≥ 30 µM

**Q.** What about the IC50 ([2]; read-out: pIC50 (converted)) of the same compound?
**A.** ≥ 30.2 µM

**Q.** And the IC50 ([3]; read-out: IC50)?
**A.** ≥ 30 µM

**Q.** What about the IC50 ([3]; read-out: pIC50 (converted)) of the same compound?
**A.** ≥ 30.2 µM

**Q.** What about the IC50 ([4]; read-out: IC50) of the same compound?
**A.** ≥ 30 µM

**Q.** What about the IC50 ([4]; read-out: pIC50 (converted)) of the same compound?
**A.** ≥ 30.2 µM

**Q.** What about the IC50 ([5]; read-out: IC50) of the same compound?
**A.** ≥ 30 µM

**Q.** What about the IC50 ([5]; read-out: pIC50 (converted)) of the same compound?
**A.** ≥ 30.2 µM

**Q.** How did the “14 day GAST/Fe MIC99” value [1] turn out when CC(C)Oc1ccc(NC(=O)c2cc(N(C)Cc3ccc(F)cc3)ncn2)cc1 [Compound 36, 6-((4-Fluorobenzyl)(methyl)amino)-N-(4-isopropoxyphenyl)pyrimidine-4-carboxamide] was run?
**A.** >160 µM
